Laboratory results published in ChEMBL document CHEMBL3600332, “Novel dammarane-type triterpenes isolated from hydrolyzate of total Gynostemma pentaphyllum saponins” (Bioorg Med Chem Lett, 2015).
Activity calls are given as the source filed them. The rule behind the calls is not given here.

How the values were obtained:
[1] = Cytotoxicity against human BGC823 cells after 48 hrs by MTT assay; type: functional, cell-based; details: BGC-823, 48 h
HCT-116 = experiment: Cytotoxicity against human HCT116 cells after 48 hrs by MTT assay; type: functional, cell-based; details: HCT-116, 48 h
HT-29 = experiment: Cytotoxicity against human HT-29 cells after 48 hrs by MTT assay; type: functional, cell-based; details: HT-29, 48 h
MCF7 [2] = experiment: Cytotoxicity against human MCF7 cells after 48 hrs by MTT assay; type: functional, cell-based; details: for IC50: MCF7, 48 h
[3] = Cytotoxicity against human MCF10A cells after 48 hrs by MTT assay; type: cell-based; details: MCF-10A
MCF7 [4] = experiment: Cytotoxicity against human MCF7 cells at 1 uM by MTT assay; type: functional, cell-based; details: TDE = time-dependent effect
MCF7 [5] = experiment: Induction of apoptosis in human MCF7 cells assessed as bubble-shaped regions at 20 uM after 36 hrs by phase-contrast microscopic analysis; type: functional, cell-based
MCF7 [6] = experiment: Induction of apoptosis in human MCF7 cells assessed as condensed chromatin in nucleus at 20 uM after 36 hrs by DAPI staining; type: functional, cell-based
MCF7 [7] = experiment: Cell cycle arrest in human MCF7 cells assessed as accumulation at subG1 phase at 20 uM after 12 to 36 hrs using propidium-iodide staining by flow-cytometry (reference value: 0.41%); type: functional
MCF7 [8] = experiment: Cell cycle arrest in human MCF7 cells assessed as accumulation at M1 phase at 20 uM after 12 to 36 hrs using propidium-iodide staining by flow-cytometry (reference value: 0.95%); type: functional

In the case of CC(C)(O)CC/C=C(/CO[C@@H]1O[C@H](CO)[C@@H](O)[C@H](O)[C@H]1O)[C@H]1CC[C@]2(C)[C@@H]1CC[C@@H]1C3=C(CC[C@]12C)C(C)(C)[C@@H]1CC[C@H]3O1, the IC50 [1] is reported as > 100 µM, the IC50 (HCT-116) is reported as > 100 µM and the IC50 (HT-29) is reported as 26.1 µM. The IC50 (MCF7 [2]) was 14.3 µM and the IC50 [3] was > 100 µM.

With COC(C)(C)CCC[C@@](O)(CO[C@@H]1O[C@H](CO)[C@@H](O)[C@H](O)[C@H]1O)[C@H]1CC[C@]2(C)[C@@H]1CC[C@@H]1C3=C(CC[C@]12C)C(C)(C)[C@@H]1CC[C@H]3O1 the IC50 [1] was > 100 µM, the IC50 (HCT-116) was 55.7 µM and the IC50 (HT-29) was 28.1 µM. For the same molecule, the Activity (MCF7 [2]) was “Dose-dependent effect”, the IC50 (MCF7 [2]) was 6.85 µM and the IC50 [3] was > 100 µM. The Activity (MCF7 [4]) was “tde”, the Activity (MCF7 [5]) was “Active” and the Activity (MCF7 [6]) was “Active”. The Activity (MCF7 [7]) was 17.09% and the Activity (MCF7 [8]) was 74.59%.

In the case of CC(C)(O)CC/C=C(/CO[C@@H]1O[C@H](CO)[C@@H](O)[C@H](O)[C@H]1O)[C@@H]1CC[C@]2(C)[C@@H]1CC[C@@H]1[C@@]3(C)CC[C@H](O)C(C)(C)[C@@H]3CC[C@]12C, the IC50 [1] is reported as > 100 µM, the IC50 (HCT-116) is reported as 66.5 µM and the IC50 (HT-29) is reported as 30.5 µM. The IC50 (MCF7 [2]) was 46.3 µM and the IC50 [3] was > 100 µM.

In the case of CC(C)(O)CCC[C@@H](CO[C@@H]1O[C@H](CO)[C@@H](O)[C@H](O)[C@H]1O)[C@H]1CC[C@]2(C)[C@@H]1CC[C@@H]1C3=C(CC[C@]12C)C(C)(C)[C@@H]1CC[C@H]3O1, the IC50 [1] is reported as > 100 µM, the IC50 (HCT-116) is reported as > 100 µM and the IC50 (HT-29) is reported as 32 µM. The IC50 (MCF7 [2]) was 21.2 µM and the IC50 [3] was > 100 µM.

In the case of CC(C)(O)CC/C=C(/CO[C@@H]1O[C@H](CO)[C@@H](O)[C@H](O)[C@H]1O)[C@H]1CC[C@]2(C)[C@@H]1CC[C@@H]1[C@@]3(C)CC[C@H](O)C(C)(C)[C@@H]3CC[C@]12C, the IC50 [1] is reported as > 100 µM, the IC50 (HCT-116) is reported as 67.3 µM and the IC50 (HT-29) is reported as 33.6 µM. For the same molecule, the IC50 (MCF7 [2]) was 52.4 µM and the IC50 [3] was > 100 µM.
